Data as given in ChEMBL document CHEMBL5728800, “JAK inhibitors” (2021).

Key:
[1] = biological target: Tyrosine-protein kinase JAK1 (Homo sapiens, UniProt P23458); experiment: (§1) JAK/TYK2 Assay: 10 mM test compound stock or 1 mM control compound stock (tofocitinib, ruxolitinib or staurosporine) in DMSO was diluted to 0.4 mM in DMSO. A 3-fold series dilution was then performed in DMSO to generate 10 different compound concentrations. The assay was carried out in 384-well white plate. 0.5 uL of 40× compound DMSO solution at different concentrations was mixed with 10 uL 2× enzyme prepared in reaction buffer (20 mM HEPES, 10 mM MgCl2, 0.01% Tween, 1 mM DTT, pH 7.5). 10 uL 2× substrate mixture prepared in reaction buffer was then added to start the reaction. A short spin was done to settle down all solutions to the bottom of the plate. Final concentrations of test compound in the reaction mixture were 10000, 3333, 1111, 370, 123, 41.2, 13.7, 4.57, 1.52and 0.51 nM. Concentrations of control compound were ten times less. Enzymatic reaction was conducted at 25° C. for 1-2 hours. 10 uL of Kinase Glo Reagents was added to stop the reaction and generate the luminescent signal which was measured using Envision. Luminescence signal was inversely related to kinase activity. […] The mixture without any compound was the positive control.
Tyrosine-protein kinase JAK1, sequence (P23458 whole entry): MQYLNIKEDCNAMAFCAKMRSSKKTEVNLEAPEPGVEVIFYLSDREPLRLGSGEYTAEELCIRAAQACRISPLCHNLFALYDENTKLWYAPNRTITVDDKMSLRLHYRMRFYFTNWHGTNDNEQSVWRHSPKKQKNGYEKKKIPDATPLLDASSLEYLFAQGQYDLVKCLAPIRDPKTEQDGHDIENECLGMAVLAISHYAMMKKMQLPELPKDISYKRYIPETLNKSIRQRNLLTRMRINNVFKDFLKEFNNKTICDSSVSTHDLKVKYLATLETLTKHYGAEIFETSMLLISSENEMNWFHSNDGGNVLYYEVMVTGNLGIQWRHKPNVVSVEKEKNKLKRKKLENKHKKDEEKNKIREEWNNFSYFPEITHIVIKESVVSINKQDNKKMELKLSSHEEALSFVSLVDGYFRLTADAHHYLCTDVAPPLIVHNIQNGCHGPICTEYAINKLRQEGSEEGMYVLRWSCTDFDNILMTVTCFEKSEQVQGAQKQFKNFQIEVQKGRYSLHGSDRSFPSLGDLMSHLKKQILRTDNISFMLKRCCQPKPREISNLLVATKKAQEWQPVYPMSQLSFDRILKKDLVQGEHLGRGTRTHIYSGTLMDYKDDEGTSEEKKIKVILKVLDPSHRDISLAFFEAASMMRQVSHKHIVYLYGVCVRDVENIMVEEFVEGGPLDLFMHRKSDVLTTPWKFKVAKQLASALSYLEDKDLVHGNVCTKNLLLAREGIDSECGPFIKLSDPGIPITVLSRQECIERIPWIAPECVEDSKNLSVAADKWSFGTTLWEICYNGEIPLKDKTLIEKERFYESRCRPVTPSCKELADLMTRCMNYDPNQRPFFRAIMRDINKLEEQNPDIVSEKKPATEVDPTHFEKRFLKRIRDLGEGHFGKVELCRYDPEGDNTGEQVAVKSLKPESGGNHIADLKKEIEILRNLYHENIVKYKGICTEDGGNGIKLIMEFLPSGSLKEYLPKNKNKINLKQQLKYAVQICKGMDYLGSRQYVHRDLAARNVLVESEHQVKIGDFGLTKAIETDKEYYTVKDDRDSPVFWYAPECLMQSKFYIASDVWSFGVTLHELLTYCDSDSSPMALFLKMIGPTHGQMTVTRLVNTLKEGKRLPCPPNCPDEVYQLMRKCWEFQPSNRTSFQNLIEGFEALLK

[2] = biological target: T1, Tyrosine-protein kinase JAK3 (Homo sapiens, UniProt P52333); experiment: as §1
T1 sequence (P52333 whole entry): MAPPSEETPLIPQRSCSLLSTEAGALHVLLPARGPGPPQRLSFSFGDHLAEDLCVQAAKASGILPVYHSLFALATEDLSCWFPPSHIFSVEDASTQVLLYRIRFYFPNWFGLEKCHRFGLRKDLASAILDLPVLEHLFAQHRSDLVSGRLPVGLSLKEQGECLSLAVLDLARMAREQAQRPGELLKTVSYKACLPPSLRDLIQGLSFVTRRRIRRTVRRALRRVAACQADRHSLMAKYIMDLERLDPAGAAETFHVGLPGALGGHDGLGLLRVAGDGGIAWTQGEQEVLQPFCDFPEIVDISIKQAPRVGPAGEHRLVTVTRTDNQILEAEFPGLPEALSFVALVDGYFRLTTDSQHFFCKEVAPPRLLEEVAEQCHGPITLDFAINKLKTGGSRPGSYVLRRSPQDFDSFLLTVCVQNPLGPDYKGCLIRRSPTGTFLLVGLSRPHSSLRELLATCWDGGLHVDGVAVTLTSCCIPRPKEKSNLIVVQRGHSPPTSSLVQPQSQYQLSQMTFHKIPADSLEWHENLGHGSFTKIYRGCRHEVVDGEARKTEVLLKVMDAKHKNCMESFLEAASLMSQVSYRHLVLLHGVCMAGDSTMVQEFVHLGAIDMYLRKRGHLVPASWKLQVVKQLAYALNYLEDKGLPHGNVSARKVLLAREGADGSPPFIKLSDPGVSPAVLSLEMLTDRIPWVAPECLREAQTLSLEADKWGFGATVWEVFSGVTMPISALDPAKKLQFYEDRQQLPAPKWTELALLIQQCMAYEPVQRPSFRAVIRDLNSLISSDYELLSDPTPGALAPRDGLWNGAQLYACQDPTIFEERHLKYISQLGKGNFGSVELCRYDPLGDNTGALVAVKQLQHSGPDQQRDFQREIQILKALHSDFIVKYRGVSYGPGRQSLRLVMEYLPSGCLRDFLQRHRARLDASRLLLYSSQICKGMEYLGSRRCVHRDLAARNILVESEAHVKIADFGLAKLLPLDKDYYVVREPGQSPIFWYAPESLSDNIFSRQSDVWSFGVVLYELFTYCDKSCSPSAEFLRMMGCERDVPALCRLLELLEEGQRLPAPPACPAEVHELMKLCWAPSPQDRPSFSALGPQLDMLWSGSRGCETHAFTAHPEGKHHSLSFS

[3] = biological target: Non-receptor tyrosine-protein kinase TYK2 (Homo sapiens, UniProt P29597); experiment: as §1
Non-receptor tyrosine-protein kinase TYK2, sequence (P29597 whole entry): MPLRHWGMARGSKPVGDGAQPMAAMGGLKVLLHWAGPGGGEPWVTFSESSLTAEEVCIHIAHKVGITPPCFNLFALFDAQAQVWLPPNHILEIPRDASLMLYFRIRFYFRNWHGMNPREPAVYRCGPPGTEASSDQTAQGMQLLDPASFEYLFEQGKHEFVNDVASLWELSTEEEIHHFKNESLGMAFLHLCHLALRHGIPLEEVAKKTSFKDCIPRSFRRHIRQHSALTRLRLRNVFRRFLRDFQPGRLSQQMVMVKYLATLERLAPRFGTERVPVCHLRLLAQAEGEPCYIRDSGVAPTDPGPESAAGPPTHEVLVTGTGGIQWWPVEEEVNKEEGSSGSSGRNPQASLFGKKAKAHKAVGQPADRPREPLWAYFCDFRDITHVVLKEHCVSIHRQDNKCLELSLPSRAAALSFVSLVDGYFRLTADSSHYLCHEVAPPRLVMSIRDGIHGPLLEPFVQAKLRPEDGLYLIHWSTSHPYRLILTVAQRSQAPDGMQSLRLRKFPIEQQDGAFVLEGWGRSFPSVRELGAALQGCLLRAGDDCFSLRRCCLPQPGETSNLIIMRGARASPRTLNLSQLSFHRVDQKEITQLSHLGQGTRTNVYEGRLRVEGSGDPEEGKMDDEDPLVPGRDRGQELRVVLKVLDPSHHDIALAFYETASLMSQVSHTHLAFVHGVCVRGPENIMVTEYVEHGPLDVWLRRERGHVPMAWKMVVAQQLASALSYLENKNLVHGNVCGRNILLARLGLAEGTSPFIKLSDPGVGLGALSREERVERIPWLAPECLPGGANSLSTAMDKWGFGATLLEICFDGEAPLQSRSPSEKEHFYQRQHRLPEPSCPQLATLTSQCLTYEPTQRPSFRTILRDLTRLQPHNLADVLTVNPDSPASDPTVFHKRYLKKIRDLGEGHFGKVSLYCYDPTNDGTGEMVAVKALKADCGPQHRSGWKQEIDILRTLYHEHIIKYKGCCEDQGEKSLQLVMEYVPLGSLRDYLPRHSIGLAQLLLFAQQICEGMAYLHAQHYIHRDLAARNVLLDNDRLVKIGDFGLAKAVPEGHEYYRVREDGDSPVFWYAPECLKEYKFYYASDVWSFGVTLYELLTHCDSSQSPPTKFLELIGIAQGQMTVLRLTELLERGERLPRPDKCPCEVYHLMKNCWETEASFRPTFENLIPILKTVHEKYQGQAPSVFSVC

[4] = biological target: Tyrosine-protein kinase JAK2 (Homo sapiens, UniProt O60674); experiment: as §1, with “Final concentrations of test compound in the reaction mixture were 10000, 3333, 1111, 370, 123, 41.2, 13.7, 4.57, 1.52and 0.51 nM.” left out
Tyrosine-protein kinase JAK2, sequence (O60674 whole entry): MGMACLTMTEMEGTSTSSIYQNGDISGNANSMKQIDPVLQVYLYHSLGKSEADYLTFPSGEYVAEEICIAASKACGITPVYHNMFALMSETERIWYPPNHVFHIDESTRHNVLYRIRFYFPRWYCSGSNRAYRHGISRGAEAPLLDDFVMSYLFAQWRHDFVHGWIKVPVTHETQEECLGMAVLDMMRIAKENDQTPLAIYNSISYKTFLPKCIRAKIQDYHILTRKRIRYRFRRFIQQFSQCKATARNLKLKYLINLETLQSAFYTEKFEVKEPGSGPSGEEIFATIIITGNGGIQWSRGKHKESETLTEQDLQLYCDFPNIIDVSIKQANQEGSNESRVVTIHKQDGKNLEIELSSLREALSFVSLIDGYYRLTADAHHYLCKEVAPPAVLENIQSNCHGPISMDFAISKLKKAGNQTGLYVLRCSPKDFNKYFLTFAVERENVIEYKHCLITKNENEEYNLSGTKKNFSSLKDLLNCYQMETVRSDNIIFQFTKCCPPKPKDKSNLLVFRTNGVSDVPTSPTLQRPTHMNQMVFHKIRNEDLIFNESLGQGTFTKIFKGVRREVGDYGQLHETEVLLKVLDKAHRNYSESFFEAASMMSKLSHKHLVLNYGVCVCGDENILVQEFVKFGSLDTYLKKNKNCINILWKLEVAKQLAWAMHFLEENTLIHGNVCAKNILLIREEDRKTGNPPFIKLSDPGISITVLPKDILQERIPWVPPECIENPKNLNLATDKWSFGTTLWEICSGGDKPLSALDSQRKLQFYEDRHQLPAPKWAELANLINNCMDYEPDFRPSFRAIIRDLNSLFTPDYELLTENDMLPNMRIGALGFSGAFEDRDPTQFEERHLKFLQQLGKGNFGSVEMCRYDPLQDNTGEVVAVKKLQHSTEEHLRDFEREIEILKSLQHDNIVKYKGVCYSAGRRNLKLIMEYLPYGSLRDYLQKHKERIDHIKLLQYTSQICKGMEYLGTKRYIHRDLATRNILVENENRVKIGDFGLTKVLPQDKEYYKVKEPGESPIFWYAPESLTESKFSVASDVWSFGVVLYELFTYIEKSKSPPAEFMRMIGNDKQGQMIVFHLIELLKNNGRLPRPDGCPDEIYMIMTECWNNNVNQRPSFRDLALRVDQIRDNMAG

Measured: IC50

CC[C@H](Cn1ccc2cnc(Nc3cnn([C@@H](CCO)C(=O)O)c3)nc21)C(C)C
< 100 nM: [1] | [2] | [3] | [4]

CCC(CC)Cn1ccc2cnc(Nc3cnn(CC(=O)OCC4OC(O)CC(O)C4O)c3)nc21 (stereo not drawn)
< 100 nM: [1] | [2] | [3] | [4]
